Laboratory results as given in ChEMBL document CHEMBL2440076, “New triarylpyrazoles as broad-spectrum anticancer agents: design, synthesis, and biological evaluation” (Eur J Med Chem, 2013).

Assays:
Format in all cases: functional
NCI-H522 = test: Growth inhibition of human NCI-H522 cells assessed as cell growth at 5X10'-5 M after 48 hrs by sulforhodamine B assay; details: NCI-H522, 48 h, read-out: Activity
NCI-H460 [1] = test: Growth inhibition of human NCI-H460 cells assessed as cell growth at 5X10'-5 M after 48 hrs by sulforhodamine B assay; details: NCI-H460, 48 h, read-out: Activity
NCI-H322M = test: Growth inhibition of human NCI-H322M cells assessed as cell growth at 5X10'-5 M after 48 hrs by sulforhodamine B assay; details: read-out: Activity
PC-3 = test: Growth inhibition of human PC3 cells assessed as cell growth at 5X10'-6 M after 48 hrs by sulforhodamine B assay; details: PC-3, 48 h, read-out: Activity
TK-10 [2] = test: Growth inhibition of human TK10 cells assessed as cell growth at 5X10'-6 M after 48 hrs by sulforhodamine B assay; details: TK-10, 48 h, read-out: Activity
OVCAR-8 = test: Growth inhibition of human OVCAR8 cells assessed as cell growth at 5X10'-6 M after 48 hrs by sulforhodamine B assay; details: OVCAR-8, 48 h, read-out: Activity
U-251 = test: Growth inhibition of human U251 cells assessed as cell growth at 5X10'-6 M after 48 hrs by sulforhodamine B assay; details: U-251, 48 h, read-out: Activity
COLO 205 = test: Growth inhibition of human COLO205 cells assessed as cell growth at 5X10'-9 M after 48 hrs by sulforhodamine B assay; details: COLO 205, 48 h, read-out: Activity
HOP-62 [3] = test: Growth inhibition of human HOP62 cells assessed as cell growth at 5X10'-9 M after 48 hrs by sulforhodamine B assay; details: HOP-62, 48 h, read-out: Activity
LOX IMVI = test: Growth inhibition of human LOXIMVI cells assessed as cell growth at 5X10'-6 M after 48 hrs by sulforhodamine B assay; details: read-out: Activity
HOP-62 [4] = test: Growth inhibition of human HOP62 cells assessed as cell growth at 5X10'-6 M after 48 hrs by sulforhodamine B assay; details: HOP-62, 48 h, read-out: Activity
T47D [5] = test: Growth inhibition of human T47D cells assessed as cell growth at 5X10'-7 M after 48 hrs by sulforhodamine B assay; details: read-out: Activity
TK-10 [6] = test: Growth inhibition of human TK10 cells assessed as cell growth at 5X10'-7 M after 48 hrs by sulforhodamine B assay; details: TK-10, 48 h, read-out: Activity
ACHN = test: Growth inhibition of human ACHN cells assessed as cell growth at 5X10'-7 M after 48 hrs by sulforhodamine B assay; details: read-out: Activity
SNB-75 = test: Growth inhibition of human SNB75 cells assessed as cell growth at 5X10'-7 M after 48 hrs by sulforhodamine B assay; details: SNB-75, 48 h, read-out: Activity
SNB-19 = test: Growth inhibition of human SNB19 cells assessed as cell growth at 5X10'-7 M after 48 hrs by sulforhodamine B assay; details: SNB-19, 48 h, read-out: Activity
SF-295 = test: Growth inhibition of human SF295 cells assessed as cell growth at 5X10'-7 M after 48 hrs by sulforhodamine B assay; details: SF-295, 48 h, read-out: Activity
[7] = Growth inhibition of human HCC2998 cells assessed as cell growth at 5X10'-7 M after 48 hrs by sulforhodamine B assay; details: HCC 2998, 48 h, read-out: Activity
NCI-H460 [8] = test: Growth inhibition of human NCI-H460 cells assessed as cell growth at 5X10'-7 M after 48 hrs by sulforhodamine B assay; details: NCI-H460, 48 h, read-out: Activity
NCI-H226 = test: Growth inhibition of human NCI-H226 cells assessed as cell growth at 5X10'-7 M after 48 hrs by sulforhodamine B assay; details: NCI-H226, 48 h, read-out: Activity
A549 = test: Growth inhibition of human A549/ATCC cells assessed as cell growth at 5X10'-7 M after 48 hrs by sulforhodamine B assay; details: A549, 48 h, read-out: Activity
SR = test: Growth inhibition of human SR cells assessed as cell growth at 5X10'-7 M after 48 hrs by sulforhodamine B assay; details: read-out: Activity
CCRF-CEM = test: Growth inhibition of human CCRF-CEM cells assessed as cell growth at 5X10'-7 M after 48 hrs by sulforhodamine B assay; details: read-out: Activity
MDA-MB-468 = test: Growth inhibition of human MDA-MB-468 cells assessed as cell growth at 5X10'-8 M after 48 hrs by sulforhodamine B assay; details: MDA-MB-468, 48 h, read-out: Activity
786-0 = test: Growth inhibition of human 786-0 cells assessed as cell growth at 5X10'-8 M after 48 hrs by sulforhodamine B assay; details: 786-0, 48 h, read-out: Activity
IGROV-1 = test: Growth inhibition of human IGROV1 cells assessed as cell growth at 5X10'-8 M after 48 hrs by sulforhodamine B assay; details: IGROV-1, 48 h, read-out: Activity
SK-MEL-28 = test: Growth inhibition of human SK-MEL-28 cells assessed as cell growth at 5X10'-8 M after 48 hrs by sulforhodamine B assay; details: SK-MEL-28, 48 h, read-out: Activity
T47D [9] = test: Growth inhibition of human T47D cells assessed as cell growth at 5X10'-5 M after 48 hrs by sulforhodamine B assay; details: read-out: Activity
MDA-MB-231 = test: Growth inhibition of human MDA-MB-231 cells assessed as cell growth at 5X10'-5 M after 48 hrs by sulforhodamine B assay; details: MDA-MB-231, 48 h, read-out: Activity
RXF 393 = test: Growth inhibition of human RXF393 cells assessed as cell growth at 5X10'-5 M after 48 hrs by sulforhodamine B assay; details: RXF 393, 48 h, read-out: Activity
A498 = test: Growth inhibition of human A498 cells assessed as cell growth at 5X10'-5 M after 48 hrs by sulforhodamine B assay; details: A498, 48 h, read-out: Activity
SK-MEL-2 = test: Growth inhibition of human SK-MEL-2 cells assessed as cell growth at 5X10'-5 M after 48 hrs by sulforhodamine B assay; details: SK-MEL-2, 48 h, read-out: Activity
HCT-116 = test: Growth inhibition of human HCT116 cells assessed as cell growth at 5X10'-8 M after 48 hrs by sulforhodamine B assay; details: HCT-116, 48 h, read-out: Activity
NCI-H23 = test: Growth inhibition of human NCI-H23 cells assessed as cell growth at 5X10'-8 M after 48 hrs by sulforhodamine B assay; details: NCI-H23, 48 h, read-out: Activity
RPMI-8226 = test: Growth inhibition of human RPMI8226 cells assessed as cell growth at 5X10'-8 M after 48 hrs by sulforhodamine B assay; details: RPMI-8226, 48 h, read-out: Activity
T47D [10] = test: Growth inhibition of human T47D cells assessed as cell growth at 5X10'-9 M after 48 hrs by sulforhodamine B assay; details: read-out: Activity

## COc1cc(-c2nn(-c3cccc(NC(=O)Nc4ccc(Cl)c(Cl)c4)c3)cc2-c2ccncc2)ccc1Cl
NCI-H522
  growth at 50 µM: -26%
NCI-H460 [1]
  growth at 50 µM: 2%
NCI-H322M
  growth at 50 µM: 6%
PC-3
  growth at 5 µM: -17%
TK-10 [2]
  growth at 5 µM: 11%
OVCAR-8
  growth at 5 µM: -12%
U-251
  growth at 5 µM: -32%
COLO 205
  growth at 0.005 µM: 109%
HOP-62 [3]
  growth at 0.005 µM: 93%
LOX IMVI
  growth at 5 µM: -32%
HOP-62 [4]
  growth at 5 µM: -1%
T47D [5]
  growth at 0.5 µM: 84%
TK-10 [6]
  growth at 0.5 µM: 83%
ACHN
  growth at 0.5 µM: 70%
SNB-75
  growth at 0.5 µM: 74%
SNB-19
  growth at 0.5 µM: 84%
SF-295
  growth at 0.5 µM: 62%
[7]
  growth at 0.5 µM: 97%
NCI-H460 [8]
  growth at 0.5 µM: 74%
NCI-H226
  growth at 0.5 µM: 82%
A549
  growth at 0.5 µM: 60%
SR
  growth at 0.5 µM: 78%
CCRF-CEM
  growth at 0.5 µM: 74%
MDA-MB-468
  growth at 0.05 µM: 84%
786-0
  growth at 0.05 µM: 102%
IGROV-1
  growth at 0.05 µM: 103%
SK-MEL-28
  growth at 0.05 µM: 95%
T47D [9]
  growth at 50 µM: 9%
MDA-MB-231
  growth at 50 µM: -54%
RXF 393
  growth at 50 µM: -43%
A498
  growth at 50 µM: -11%
SK-MEL-2
  growth at 50 µM: -59%
HCT-116
  growth at 0.05 µM: 107%
NCI-H23
  growth at 0.05 µM: 101%
RPMI-8226
  growth at 0.05 µM: 92%
T47D [10]
  growth at 0.005 µM: 97%
